Where two headings read alike, the source gives them in different places.
What was measured:
[1] = biological target: T1, human 5-HT2B receptors (Homo sapiens, UniProt P41595); test: Binding to the 5-HT2B receptor, [3H]-5-HT, CHO cell line (Method (b))
T1 construct: expressed in transfected cells; host or cells: CHO cell line
Procedure: (§1) The binding of compounds of formula (I) to serotonin receptors was determined in vitro by standard methods. The preparations were investigated in accordance with the assays given hereinafter.
Method (b): For the binding to the 5-HT2B receptor the 5-HT2B receptors were radiolabeled with [^3H]-5-HT. The affinity of the compounds for human 5-HT2B receptors in a CHO cell line was determined according to the procedure of K. Schmuck, C. Ullmer, P. Engels and H. Lubbert, FEBS Lett., 1994, 342, 85-90.

[2] = biological target: T2, 5-HT2C receptor (Homo sapiens, UniProt P28335); test: Functional activity, FLIPR calcium assay, CHO cells expressing human 5-HT2C; format: cell-based; design: expressed in transfected cells; host or cells: CHO cells; settings: for h5-HT2C Rel. Eff.: maximum fluorescent signal relative to 10 μM 5-HT (defined as 100%)
T2 sequence (P28335 33-458): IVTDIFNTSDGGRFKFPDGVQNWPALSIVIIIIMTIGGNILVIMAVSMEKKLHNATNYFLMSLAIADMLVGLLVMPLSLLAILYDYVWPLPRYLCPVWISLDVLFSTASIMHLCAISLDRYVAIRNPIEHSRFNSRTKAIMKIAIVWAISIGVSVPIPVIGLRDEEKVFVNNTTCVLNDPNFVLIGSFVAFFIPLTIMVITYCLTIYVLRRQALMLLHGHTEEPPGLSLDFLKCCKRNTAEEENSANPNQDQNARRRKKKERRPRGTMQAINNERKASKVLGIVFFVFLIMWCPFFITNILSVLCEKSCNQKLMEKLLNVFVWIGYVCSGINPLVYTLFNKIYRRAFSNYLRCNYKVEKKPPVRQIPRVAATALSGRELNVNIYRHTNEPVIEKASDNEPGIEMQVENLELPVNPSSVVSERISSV
Procedure: (§2) The functional activity of compounds of formula (I) was assayed using a Fluorimetric Imaging Plate Reader (FLIPR). CHO cells expressing the human 5-HT2C or human 5-HT2A receptors were counted and plated into standard 96 well microtitre plates on the day before testing to give a confluent monolayer. The cells were then loaded with the calcium sensitive dye, Fluo-3-AM. Unincorporated dye was removed using an automated cell washer to leave a total volume of 100 μL/well of assay buffer (Hanks balanced salt solution containing 20 mM Hepes and 2.5 mM probenecid). The drug (dissolved in 50 μL of the assay buffer) was added at a rate of 70 μL/sec to each well of the FLIPR 96 well plate during fluorescence measurements. The measurements were taken at 1 sec intervals and the maximum fluorescent signal was measured (approx 10-15 secs after drug addition) and compared with the response produced by 10 μM 5-HT (defined as 100%) to which it was expressed as a percentage response (relative efficacy). Dose response curves were constructed using Graphpad Prism (Graph Software Inc.).

[3] = biological target: T3, 5-HT2A receptor (Homo sapiens, UniProt P28223); test: Functional activity, FLIPR calcium assay, CHO cells expressing human 5-HT2A; format: cell-based; design: expressed in transfected cells; host or cells: CHO cells; settings: for EC50: FLIPR, CHO cells, Fluo-3-AM, read-out: h5-HT2A EC50; for h5-HT2A Rel. Eff.: maximum fluorescent signal relative to 10 μM 5-HT (defined as 100%)
Procedure: as §2

[4] = biological target: T2, 5-HT2C receptor; test: Binding to the 5-HT2C receptor, [3H]-5-HT, CHO cell line (Method (a)); design: expressed in transfected cells; host or cells: CHO cell line
Procedure: as §1
Method (a): For the binding to the 5-HT2C receptor the 5-HT2C receptors were radiolabeled with [^3H]-5-HT. The affinity of the compounds for 5-HT2C receptors in a CHO cell line was determined according to the procedure of D. Hoyer, G. Engel and H. O. Kalkman, European J. Pharmacol., 1985, 118, 13-23.

[5] = biological target: T3, 5-HT2A receptor; test: Binding to the 5-HT2A receptor, [125I]-DOI, CHO cell line (Method (c)); design: expressed in transfected cells; host or cells: CHO cell line
Procedure: as §1
Method (c): For the binding to the 5-HT2A receptor the 5-HT2A receptors were radiolabeled with [^125I]-DOI. The affinity of the compounds for 5-HT2A receptors in a CHO cell line was determined according to the procedure of D. J. McKenna and S. J. Peroutka, J. Neurosci., 1989, 9, 3482-90.

[6] = Method (b), [3H]-5-HT, human 5-HT2B, CHO cell line, read-out: Ki (2B)
[7] = FLIPR, CHO cells, Fluo-3-AM, read-out: h5-HT2C EC50
[8] = Method (a), [3H]-5-HT, CHO cell line, read-out: Ki (2C)
[9] = Method (c), [125I]-DOI, CHO cell line, read-out: Ki (2A)

T1 sequence (P41595 whole entry): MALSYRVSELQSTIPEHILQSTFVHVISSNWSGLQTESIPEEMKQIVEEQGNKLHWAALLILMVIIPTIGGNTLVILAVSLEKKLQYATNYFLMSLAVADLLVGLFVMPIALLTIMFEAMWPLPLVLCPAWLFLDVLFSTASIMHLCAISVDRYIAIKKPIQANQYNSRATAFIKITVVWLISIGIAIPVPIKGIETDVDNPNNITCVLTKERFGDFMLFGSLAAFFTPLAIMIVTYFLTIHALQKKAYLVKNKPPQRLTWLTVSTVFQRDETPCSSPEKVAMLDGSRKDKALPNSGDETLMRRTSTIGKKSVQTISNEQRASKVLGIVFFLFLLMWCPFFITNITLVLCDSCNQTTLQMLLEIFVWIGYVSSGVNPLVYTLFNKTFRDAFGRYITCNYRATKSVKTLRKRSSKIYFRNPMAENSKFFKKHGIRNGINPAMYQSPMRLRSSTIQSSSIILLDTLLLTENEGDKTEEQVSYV
T3 sequence (P28223 whole entry): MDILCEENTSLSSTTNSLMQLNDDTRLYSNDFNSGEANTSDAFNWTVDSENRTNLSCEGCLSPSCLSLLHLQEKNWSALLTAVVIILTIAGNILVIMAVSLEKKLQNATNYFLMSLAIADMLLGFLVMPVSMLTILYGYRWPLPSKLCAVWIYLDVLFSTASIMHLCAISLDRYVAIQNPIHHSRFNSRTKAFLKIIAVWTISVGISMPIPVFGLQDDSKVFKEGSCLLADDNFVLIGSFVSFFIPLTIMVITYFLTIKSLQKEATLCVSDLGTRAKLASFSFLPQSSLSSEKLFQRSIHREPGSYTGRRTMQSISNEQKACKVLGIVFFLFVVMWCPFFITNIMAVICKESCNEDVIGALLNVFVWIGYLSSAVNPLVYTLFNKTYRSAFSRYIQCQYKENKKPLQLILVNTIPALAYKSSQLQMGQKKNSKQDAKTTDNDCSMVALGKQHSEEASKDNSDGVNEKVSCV

Row | SMILES | Ki [1, 6] [µM] | EC50 [2, 7] [µM] | h5-HT2C Rel. Eff. [2] [%] | EC50 [3] [µM] | h5-HT2A Rel. Eff. [3] [%] | Ki [4, 8] [µM] | Ki [5, 9] [µM] | Ki [1] [µM] | EC50 [2] [µM] | Ki [4] [µM] | Ki [5] [µM]
1 | FC(F)(F)c1cccc(C[C@@H]2CNCCO2)c1 [Example 14, (R)-2-(3-trifluoromethyl)benzylmorpholine] | 0.055 | 0.007 | 97 | 0.511 | 47 | 0.01 | 0.089 | – | – | – | –
2 | COc1c(C)cc(C[C@@H]2CNCCO2)cc1Br [Example 46, (R)-2-(3-bromo-4-methoxy-5-methyl-benzyl)morpholine] | > 10 | 0.053 | 94 | > 3 | 21 | 0.082 | 0.641 | – | – | – | –
3 | c1ccc(C[C@@H]2CNCCO2)cc1 [reference compound] | – | – | 41 | > 3 | 2 | – | – | > 10 | > 3 | 0.169 | > 10

From patent US7323466B2, “Morpholine derivatives as 5HT2C receptor agonists for the treatment of obesity” (Hoffman-La Roche Inc., priority 2005, dated 2008)
